# Laboratory results as given in ChEMBL document CHEMBL3217519, “A self-immolative dendritic glucuronide prodrug of doxorubicin” (Medchemcomm, 2012).
# Activity calls are given as the source filed them. No cut-off for these calls is given here.
# Experiments:
# [1] = tested on: NCI-H661; experiment: Antiproliferative activity against human NCI-H661 cells assessed as inhibition of cell viability after 3 days by XTT assay in presence of beta-glucuronidase; format: functional, cell-based; settings: NCI-H661, 72 h
# [2] = biological target: Beta-glucuronidase (Escherichia coli (strain K12), UniProt P05804); experiment: Prodrug activation in phosphate buffer assessed as Escherichia coli beta-glucuronidase-catalysed release of doxorubicin at 0.06 umol at pH 7 after 6 hrs by HPLC analysis; settings: isolated protein, pH 7, 6 h
# [3] = tested on: Serum; experiment: Stability of the compound in bovine serum assessed as drug degradation at 37 degC measured for 24 hrs; format: ADME, Bos taurus; settings: cattle
# [4] = Stability of the compound in 0.02M phosphate buffer assessed as drug decomposition at 0.06 umol at pH 7 after 10 days by HPLC analysis; format: physicochemical; settings: pH 7, 240 h
# [5] = tested on: NCI-H661; experiment: Ratio of HMR1826 IC50 to compound IC50 for human NCI-H661 cells in presence of beta-glucuronidase; format: functional
# [6] = tested on: NCI-H661; experiment: Antiproliferative activity against human NCI-H661 cells assessed as inhibition of cell viability at 1000 nM after 3 days by XTT assay; format: functional, cell-based
# Sequence of Beta-glucuronidase (P05804 whole entry): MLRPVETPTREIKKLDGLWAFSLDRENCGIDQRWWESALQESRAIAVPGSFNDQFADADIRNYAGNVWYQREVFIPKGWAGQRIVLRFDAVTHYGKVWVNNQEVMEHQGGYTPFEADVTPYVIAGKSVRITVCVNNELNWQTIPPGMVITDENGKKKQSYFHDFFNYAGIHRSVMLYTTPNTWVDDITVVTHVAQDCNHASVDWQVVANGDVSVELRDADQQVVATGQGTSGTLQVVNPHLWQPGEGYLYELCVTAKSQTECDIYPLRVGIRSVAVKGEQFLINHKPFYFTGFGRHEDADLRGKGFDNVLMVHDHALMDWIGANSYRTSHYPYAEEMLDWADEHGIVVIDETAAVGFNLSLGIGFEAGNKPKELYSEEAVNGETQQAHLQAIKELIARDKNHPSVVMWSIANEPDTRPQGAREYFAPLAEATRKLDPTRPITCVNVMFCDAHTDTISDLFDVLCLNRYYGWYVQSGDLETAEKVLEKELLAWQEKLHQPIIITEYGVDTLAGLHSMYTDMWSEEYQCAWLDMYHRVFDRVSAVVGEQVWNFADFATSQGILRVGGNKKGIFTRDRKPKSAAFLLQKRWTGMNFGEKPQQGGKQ
IC50 [1] [nM],Drug metabolism [2],Stability [3],Stability [4],SMILES,Ratio IC50 [5],inhibition [6]
280,–,–,–,COc1cccc2c1C(=O)c1c(O)c3c(c(O)c1C2=O)C[C@@](O)(C(=O)CO)C[C@@H]3O[C@H]1C[C@H](NC(=O)OCc2ccc(O[C@@H]3O[C@H](C(=O)O)[C@@H](O)[C@H](O)[C@H]3O)c([N+](=O)[O-])c2)[C@H](O)[C@H](C)O1,–,–
110,Active,Stable,Stable,COc1cccc2c1C(=O)c1c(O)c3c(c(O)c1C2=O)C[C@@](O)(C(=O)CO)C[C@@H]3O[C@H]1C[C@H](NC(=O)OCc2ccc(NC(=O)OCc3ccc(O[C@@H]4O[C@H](C(=O)O)[C@@H](O)[C@H](O)[C@H]4O)c([N+](=O)[O-])c3)c(COC(=O)N[C@H]3C[C@H](O[C@H]4C[C@](O)(C(=O)CO)Cc5c(O)c6c(c(O)c54)C(=O)c4c(OC)cccc4C6=O)O[C@@H](C)[C@H]3O)c2)[C@H](O)[C@H](C)O1,2,inactive
250,–,–,–,COc1cccc2c1C(=O)c1c(O)c3c(c(O)c1C2=O)C[C@@](O)(C(=O)CO)C[C@@H]3O[C@H]1C[C@H](N)[C@H](O)[C@H](C)O1 [DOXORUBICIN],–,–
